Series [1] relates to Staphylococcus aureus ATCC 6538P. The series is described as follows: Antibacterial activity (minimum growth inhibitory concentration), agar dilution method. To be noted: ATCC6538P, pH 7.0, agar dilution method, read-out: minimum growth inhibitory concentration, SA. The format is cell-based. The procedure: (§1) Antibacterial activities of Compounds (I) against various bacteria are shown by the minimum growth inhibitory concentration (μg/ml) in Table 3. The minimum growth inhibitory concentration was measured at pH 7.0 according to the agar dilution method. In the table, bacteria are indicated by the following letters.
SA: Staphylococcus aureus ATCC 6538P
A general note: In agar dilution the substance is mixed into plates at graded concentrations.

Series [2] concerns Proteus vulgalis ATCC 6897. Described as above. The series is classed as cell-based. To be noted: pH 7, read-out: minimum growth inhibitory concentration, PV. The protocol: as §1
PV: Proteus vulgalis ATCC 6897

Series [3] has as its system Streptococcus faecalis ATCC 10541. The description is as above. The format is cell-based. To be noted: Enterococcus faecalis, ATCC10541; Streptococcus faecalis ATCC 10541, pH 7.0, agar dilution method; read-out: minimum growth inhibitory concentration, SF. The protocol: as §1
SF: Streptococcus faecalis ATCC 10541

The test system of series [4] is Klebsiella pneumoniae ATCC 10031. The series is described as above. The format is cell-based. To be noted: ATCC10031; Klebsiella pneumoniae ATCC 10031, pH 7.0, agar dilution method; read-out: minimum growth inhibitory concentration, KP. The protocol:
as §1
KP: Klebsiella pneumoniae ATCC 10031

Another series can be described thus: Acute toxicity. To be noted: mouse, in vivo, ip; ddY mice, intraperitoneally once, 14 days observation. The protocol: Each animal of the test group consisting of 5 ddY mice was administered intraperitoneally once with a test compound. […] The LD50 was determined by Beherns Kaerber's method.
Another series deals with Bacillus subtilis 10707. The series is described as follows: Antibacterial activity (minimum growth inhibitory concentration), agar dilution method. The series is classed as cell-based. To be noted: Bacillus subtilis 10707, pH 7.0, agar dilution method; read-out: minimum growth inhibitory concentration, BS. The protocol: as §1
BS: Bacillus subtilis 10707

The subject of another series is Sarcoma 180 solid tumour. As to the kind of experiment: animal or person. To be noted: for CIc: CI of test compound divided by CI of mitomycin C as control in the same condition; for ED50: Mus musculus, Sarcoma-180, iv, 168 h; for CI (LD50/ED50): chemotherapeutic index. The source says: CIc : Value given by division of CI of each test compound by CI of
determination of antitumour activity of the test compound. A CIc
5×10^6 cells of Sarcoma 180 solid tumour were intraperitoneally implanted into ddY mice. 7 days later, ascites cells were sampled. The cells were washed once with a sterilized physiological sodium chloride solution and were used to prepare a cell suspension containing 5×10^7 cells per ml with a sterilized physiological sodium chloride solution. On each occasion, 0.1 ml of the cell suspension was subcutaneously implanted into the right axilla of a male mouse (ddY strain; body weight 20±2 g).
The anti-tumour activity was determined in the following manner. 7 days after the implantation, the major axis (a) and the minor axis (b) of the tumour were measured to calculate a value of "a×b^2 /2" which corresponds to the volume of the tumour. The anti-tumour activity was expressed by the ratio (T/C) of the volume (T) of the tumours of the group of animals administered with the test compound to the corresponding volume (C) of tumours of the untreated animals.
On graph paper, T/C was indicated by an arithmetic scale on the longitudinal axis and the administered amount of the test compound was indicated by a logarithmic scale on the lateral axis.

The subject of another series is peripheral leucocytes. The series is described as follows: Effect on the peripheral leucocytes number. The series is classed as in vivo, mouse (ddY strain). To be noted: minimum dose reducing peripheral leucocytes number to 4000/mm^3; tumour-carrying ddY mice, intraperitoneal, 4 days after administration. The protocol: WBC4000 : Minimum dose of a test compound which reduces the
peripheral leucocytes number to 4000/mm^3.
Sarcoma 180 solid tumour cells (5×10^6) were subcutaneously implanted into the right axilla of each mouse (body weight 20±2 g) of a group consisting of 5 male mice (ddY strain). 24 hours after implantation,a test compound was intraperitoneally administered to each animal. 4 days after the administration, blood (each 0.02 ml) was collected from the suborbital plexus vein of each tumour-carrying animal. The collected sample of blood was dispersed in 9.98 ml of Cell-Kit Seven solution. One drop of saponin solution was added to the sample to dissolve erythrocytes and then a microcell counter was used to count the number of leucocytes. […] The relationship between the number of peripheral leucocytes and the dose of the test compound was plotted and the dose (i.e., WBC4000) corresponding to 4000 peripheral leucocytes/mm^3 (about half the number of leucocytes of normal mice) was obtained.

Values after ≈ are worked out from the molar mass of the structure shown. Some results are limits rather than exact numbers.

What is called LD50 is the dose expected to kill half of the subjects tested. As usually defined, the ED50 is the midpoint of the dose-response relation. Low readings indicate greater potency, high ones weaker potency.

Take `CCC(=O)SCCNC1=C(C)C(=O)C2=C(C1=O)[C@@H](COC(N)=O)[C@@]1(OC)[C@H]3N[C@H]3CN21` [Compound 5]: the MIC in series [1] was less than 0.02 µg/mL; in series [2], 1.3 µg/mL (≈ 2.89 µM); in series [3], less than 0.02 µg/mL; in series [4], 0.31 µg/mL (≈ 0.688 µM); in the series on Bacillus subtilis 10707, less than 0.02 µg/mL. The LD50 at 336 h in the series “Acute toxicity” amounted to 4.7 mg/kg. In the series with Sarcoma 180 solid tumour, this molecule showed a CIc of 0.59. Also, the ED50 with Sarcoma 180 solid tumour is 5 mg/kg. Further, the “CI (LD50/ED50)” value with Sarcoma 180 solid tumour came to 0.94. Further, the WBC4000 in the series with peripheral leucocytes was greater than 5 mg/kg.

With `CCC(=O)SCCNC1=C(C)C(=O)C2=C(C1=O)[C@H](COC(N)=O)[C@@]1(O)[C@@H]3[C@H](CN21)N3C` (stereo partly shown) [Compound 6], the MIC in series [1] came out at 13 µg/mL (≈ 28.9 µM); in series [2], 100 µg/mL (≈ 222 µM); in series [3], 13 µg/mL (≈ 28.9 µM); in series [4], 25 µg/mL (≈ 55.5 µM); with Bacillus subtilis 10707, 0.78 µg/mL (≈ 1.73 µM).

For the molecule `CO[C@@]12[C@H](COC(N)=O)C3=C(C(=O)C(C)=C(NCCCCCCCCSC(C)=O)C3=O)N1C[C@@H]1N[C@@H]12` [Compound 12], the MIC is 0.31 µg/mL (≈ 0.595 µM) in series [1]; 5 µg/mL (≈ 9.6 µM) in series [2]; 5 µg/mL (≈ 9.6 µM) in series [3]; 1.3 µg/mL (≈ 2.5 µM) in series [4]; 0.31 µg/mL (≈ 0.595 µM) with Bacillus subtilis 10707. In addition, the median lethal dose (LD50) at 336 h in the series “Acute toxicity” came out at 45 mg/kg. In addition, the CIc in the series with Sarcoma 180 solid tumour was determined as 1.3. For the same molecule, the ED50 in the series on Sarcoma 180 solid tumour amounted to 9.7 mg/kg. Further, in the series with Sarcoma 180 solid tumour, the “CI (LD50/ED50)” value stood at 4.6. The same molecule showed a WBC4000 in the series on peripheral leucocytes of 19.6 mg/kg.

As to `CC1=C(NCCSC(=O)c2ccccc2)C(=O)C2=C(C1=O)N1C[C@H]3[C@H](N3C)[C@]1(O)[C@H]2COC(N)=O` (stereo partly shown) [Compound 14], the MIC in series [1] is greater than 100 µg/mL; in series [3], 50 µg/mL (≈ 100 µM); in series [4], greater than 100 µg/mL; in the series on Bacillus subtilis 10707, 0.39 µg/mL (≈ 0.782 µM).

On to `C=C1C2=C(C(=O)C(C)=C(NCCSC(=O)c3ccccc3)C2=O)N2C[C@H]3[C@H](N3C)[C@]12O` (stereo partly shown) [Compound 15], for which the MIC in series [1] is 25 µg/mL (≈ 57.1 µM); in series [2], 25 µg/mL (≈ 57.1 µM); in series [3], greater than 100 µg/mL; in series [4], 50 µg/mL (≈ 114 µM); in the series on Bacillus subtilis 10707 it was 1.6 µg/mL (≈ 3.66 µM). This molecule gave a 50% lethal dose (LD50) at 336 h in “Acute toxicity” of no less than 50 mg/kg. Besides, in the series with Sarcoma 180 solid tumour, the CIc was no less than 0.74. This molecule returned an ED50 in the series with Sarcoma 180 solid tumour of 27.5 mg/kg. Further, the “CI (LD50/ED50)” value in the series on Sarcoma 180 solid tumour is listed as no less than 1.8. The molecule further registered a WBC4000 in the series with peripheral leucocytes of 27.5 mg/kg.

On to `CO[C@@]12[C@H](COC(N)=O)C3=C(C(=O)C(C)=C(NCCSC(=O)c4ccccc4)C3=O)N1C[C@H]1[C@@H]2N1C` (stereo partly shown) [Compound 16], for which the MIC in series [1] is 0.16 µg/mL (≈ 0.312 µM); in series [2], greater than 40 µg/mL; in series [3], 0.63 µg/mL (≈ 1.23 µM); in series [4], 10 µg/mL (≈ 19.5 µM); in the series on Bacillus subtilis 10707, 0.078 µg/mL (≈ 0.152 µM).

Take `CO[C@@]12[C@H](COC(N)=O)C3=C(C(=O)C(C)=C(NCCCCCCSC(=O)c4ccccc4)C3=O)N1C[C@@H]1N[C@@H]12` [Compound 17]: the MIC in series [1] was 0.63 µg/mL (≈ 1.14 µM); in series [2], greater than 40 µg/mL; in series [3] it was 2.5 µg/mL (≈ 4.51 µM); in series [4], 10 µg/mL (≈ 18 µM); in the series with Bacillus subtilis 10707, 0.16 µg/mL (≈ 0.288 µM). The molecule further registered an LD50 at 336 h in “Acute toxicity” greater than 50 mg/kg. In the series on Sarcoma 180 solid tumour, this molecule returned a CIc greater than 1.7. The same molecule returned an ED50 in the series with Sarcoma 180 solid tumour of 9.5 mg/kg. Besides, in the series with Sarcoma 180 solid tumour, the “CI (LD50/ED50)” value is recorded as greater than 5.3. For the same molecule, the WBC4000 with peripheral leucocytes was 32.2 mg/kg.

For the molecule `CO[C@@]12[C@H](COC(N)=O)C3=C(C(=O)C(C)=C(NCCSC(=O)c4ccc(F)cc4)C3=O)N1C[C@@H]1N[C@@H]12` [Compound 18], the MIC was less than 0.02 µg/mL in series [1]; 10 µg/mL (≈ 19.4 µM) in series [2]; 0.16 µg/mL (≈ 0.31 µM) in series [3]; 5 µg/mL (≈ 9.68 µM) in series [4]; less than 0.02 µg/mL with Bacillus subtilis 10707. Also, in the series “Acute toxicity”, the LD50 at 336 h turned out to be 6 mg/kg. Further, the CIc in the series with Sarcoma 180 solid tumour is 1.2. Further, the ED50 in the series with Sarcoma 180 solid tumour is 1.6 mg/kg. Also, the “CI (LD50/ED50)” value in the series with Sarcoma 180 solid tumour stood at 3.8. The WBC4000 with peripheral leucocytes came out at 5 mg/kg.
